Data on 1 substance can be found in paper PMC4122817, “Target Engagement Analysis and Link to Pharmacodynamic Endpoint for a Novel Class of CNS-penetrant and Efficacious p38α MAPK Inhibitors” (Journal of Neuroimmune Pharmacology, 2014).

By IC50 is commonly meant the concentration at which inhibition is half-maximal. A lower IC50 goes with inhibition by little substance.

The test addresses T1, p38α MAPK (Mus musculus, UniProt P47811).
T1 construct: gene Mapk14; endogenous p38α MAPK in the murine microglial BV-2 cell line
Description: western blot of phosphorylated substrate MK2 in LPS-stimulated BV2 cells (pMSK1 IC50 […]); in vivo effect lost in p38α T106M knock-in mice. The class given is cell-based.

T1 sequence (P47811 2-360): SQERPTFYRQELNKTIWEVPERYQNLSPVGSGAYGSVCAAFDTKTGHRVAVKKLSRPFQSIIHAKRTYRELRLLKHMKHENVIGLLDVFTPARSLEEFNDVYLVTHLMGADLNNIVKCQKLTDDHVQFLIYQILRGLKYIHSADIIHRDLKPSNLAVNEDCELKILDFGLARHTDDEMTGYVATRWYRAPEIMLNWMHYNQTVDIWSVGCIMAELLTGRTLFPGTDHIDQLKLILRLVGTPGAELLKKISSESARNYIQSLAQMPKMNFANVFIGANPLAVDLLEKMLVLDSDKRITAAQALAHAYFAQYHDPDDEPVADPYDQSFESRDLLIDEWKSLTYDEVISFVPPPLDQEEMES

For MW181, the IC50 was found to be 1200 nM.
